The values below come from patent publication US5202242A, “A83543 compounds and processes for production thereof” (DowElanco, priority 1991, dated 1993).

SMILES strings stand for the structures. Values after ≈ are worked out from the molar mass of the structure shown. Where two headings read alike, the source gives them in different places.

One data set deals with Rootknot Nematode. The data set can be described thus: Mite/insect screen: Rootknot Nematode (NEM). The class given is in vivo, Meliiodyne spp. As to conditions: 264 h, 11 day. The procedure: (§1) The formula 1A compounds were tested for miticidal and insecticidal activity in the following mite/insect screen. Each test compound was formulated by dissolving the compound in an acetone-alcohol (1:1) mixture containing 23 g of TOXIMUL R (sulfonate/nonionic emulsifier blend) and 13 g of TOXIMUL S (sulfonate/nonionic emulsifier blend) per liter. These mixtures were then diluted with water to give the indicated concentrations.
(§2) Two-spotted spider mites and cotton aphids were introduced on squash cotyledons and allowed to establish on both leaf surfaces. The leaves were then sprayed with 5 ml of test solutions using a DeVilbiss atomizing sprayer at 10 psi. Both surfaces of the leaves were covered until run off and then allowed to dry for one hour. After standard exposure periods percent mortality was evaluated. Additional insects were evaluated using similar formulations and evaluation procedures.

Another data set relates to Adult Stablefly. Nature of the data set: In vitro activity against adult stable fly. The class given is in vivo. As to conditions: Stomoxys calcitrans. The source says:
(§3) The formula 1A compounds are also active against members of the insect order Diptera. Tables VIII and IX summarize the in vitro studies of the formula 1A compounds against blowfly larvae and adult stable fly.

A further data set concerns Neonate Tobacco Budworm. Nature of the data set: LD50 against neonate tobacco budworm (petri dish assay). In kind it is in vivo. Particulars: Heliothis virescens; neonate larvae; mortality evaluated at 24 and 48 hours; mean of two tests. The method, then:
The formula 1A compounds were evaluated in the following assay to determine the LD50 against neonate tobacco budworm (Heliothis virescens). A petri dish (100 mm×20 mm) is inverted and the lid lined with a #1 qualitative filter paper. Ten neonate larvae are placed in each dish and a 1 ml test solution is pipetted onto the insects. The petri dish bottom is then placed on the lid to contain the larvae. At 1 hr. after treatment, a small piece of Heliothis diet (modified shurry, Southland Products, Lake Village, AR) is added to each dish. The mortality is evaluated at 24 and 48 hours. Each test is run in triplicate.

A further data set concerns Two-spotted Spider Mite. The data set can be described thus: Mite/insect screen: Two-spotted Spider Mite (TSSM). In kind it is in vivo. As to conditions: Tetranychus urticae, 4-5 day. The procedure:
as §1, §2

The next data set deals with Southern Corn Rootworm. The data set can be described thus: Mite/insect screen: Southern Corn Rootworm (SCRW). In kind it is in vivo, Diabrotica undecimpunctata howardi. Particulars: 264 h, 11 day. The procedure: as §1, §2
A further data set concerns Tobacco Budworm. Nature of the data set: Mite/insect screen: Tobacco Budworm (TBW). The class given is in vivo. Particulars: Heliothis virescens, 144 h, 6 day. The procedure: as §1, §2
For the next data set, the system named is Blowfly Larvae. Nature of the data set: In vitro activity against blowfly larvae. The class given is in vivo. As to conditions: 5 ppm.
From the text: as §3

In another data set the test system is Cotton Aphid. The data set can be described thus: Mite/insect screen: Cotton Aphid (CA). The class given is in vivo, Aphis gossypii Glover. Particulars: Aphis gossypii, 4-5 day. The method, then: as §1, §2
The subject of the next data set is Aster Leafhopper. The data set can be described thus: Mite/insect screen: Aster Leafhopper (ALH). As to conditions: Macrosteles fascifrons, 24 hr. The class given is in vivo. The procedure:
as §1, §2

The subject of a further data set is Beet Armyworm. The data set can be described thus: Mite/insect screen: Beet Armyworm (BAW). In kind it is in vivo, Spodoptera exiqua. Particulars: Spodoptera exigua, 144 h, 6 day. The method, then:
as §1, §2

For another data set, the system named is German Cockroach. The data set can be described thus: Mite/insect screen: German Cockroach (GECR). The class given is in vivo. Particulars: Blattella germanica. The method, then: as §1, §2
Where [1] appears, read: 24 hr, read-out: % mortality 24 hr.
The mark [2] stands for this setting: 48 hr, read-out: % mortality 48 hr.

The term inhibition denotes the change of the read-out against control, counted positive when it falls. Higher therefore signals strong suppression. By mortality is commonly meant the percentage killed. For orientation: LC50 means the concentration that kills 50% of the test population. Higher therefore signals lower toxicity. `CCC1CCCC(OC2CCC(N(C)C)C(C)O2)C(C)C(=O)C2=CC3C(C=C(C)C4CC(OC5OC(C)C(OC)C(O)C5OC)CC43)C2CC(=O)O1` (stereo not shown) [Compound A83543L]: the inhibition at 200 ppm was determined as 0% in the data set with Rootknot Nematode; 0% in the data set on Two-spotted Spider Mite; 0% in the data set on Southern Corn Rootworm; 100% in the data set with Tobacco Budworm; 0% with Cotton Aphid; 100% in the data set with Aster Leafhopper. Further, the inhibition at 200 ppm in the data set with Beet Armyworm stood at 100%; with German Cockroach (168 h, 7 day), 40%; with German Cockroach (504 h, 21 day), 100%. The inhibition at 400 ppm amounted to 0% with Rootknot Nematode; 0% in the data set on Two-spotted Spider Mite; 0% in the data set on Southern Corn Rootworm; 100% in the data set on Tobacco Budworm; 0% with Cotton Aphid; 100% with Aster Leafhopper. The inhibition at 400 ppm is 100% in the data set with Beet Armyworm; 0% in the data set with German Cockroach (168 h, 7 day); 100% in the data set with German Cockroach (504 h, 21 day). The mortality at 5 ppm in the data set on Adult Stablefly (setting [1]) was 70%; with Adult Stablefly (setting [2]), 100%. Besides, the LC50 in the data set with Neonate Tobacco Budworm was 26 µg/mL (≈ 35.5 µM). Also, the “% mortality” value in the data set on Blowfly Larvae stood at 90%.
For the compound `CCC1CCCC(OC2CCC(NC)C(C)O2)C(C)C(=O)C2=CC3C(C=CC4CC(OC5OC(C)C(OC)C(O)C5OC)CC43)C2CC(=O)O1` (stereo not shown) [Compound A83543M], the inhibition at 200 ppm came to 0% in the data set on Rootknot Nematode; 0% in the data set on Two-spotted Spider Mite; 0% with Southern Corn Rootworm; 70% in the data set on Tobacco Budworm; 0% in the data set on Cotton Aphid; 60% with Aster Leafhopper. The inhibition at 200 ppm with Beet Armyworm turned out to be 0%; in the data set with German Cockroach (168 h, 7 day), 0%; with German Cockroach (504 h, 21 day), 20%. Also, the inhibition at 400 ppm with Rootknot Nematode is 0%; with Two-spotted Spider Mite, 0%; in the data set on Southern Corn Rootworm, 0%; with Tobacco Budworm it was 100%; in the data set with Cotton Aphid, 0%; in the data set with Aster Leafhopper it was 100%. In addition, the inhibition at 400 ppm worked out at 0% in the data set with Beet Armyworm; 0% in the data set on German Cockroach (168 h, 7 day); 40% in the data set with German Cockroach (504 h, 21 day). The mortality at 5 ppm turned out to be 60% in the data set on Adult Stablefly (setting [1]) and 100% in the data set with Adult Stablefly (setting [2]). This compound also yielded an LC50 in the data set with Neonate Tobacco Budworm of 22.6 µg/mL (≈ 32.1 µM).
On to `CCC1CCCC(OC2CCC(NC)C(C)O2)C(C)C(=O)C2=CC3C(C=C(C)C4CC(OC5OC(C)C(OC)C(O)C5OC)CC43)C2CC(=O)O1` (stereo not shown) [Compound A83543N], for which the inhibition at 200 ppm in the data set with Rootknot Nematode is 0%; in the data set on Two-spotted Spider Mite, 0%; in the data set with Southern Corn Rootworm it was 0%; in the data set on Tobacco Budworm, 100%; in the data set with Cotton Aphid, 0%; with Aster Leafhopper, 100%. Also, the inhibition at 200 ppm in the data set with Beet Armyworm stood at 90%; in the data set on German Cockroach (168 h, 7 day), 0%; in the data set with German Cockroach (504 h, 21 day), 0%. Besides, the inhibition at 400 ppm amounted to 0% in the data set on Rootknot Nematode; 0% with Two-spotted Spider Mite; 0% in the data set with Southern Corn Rootworm; 100% in the data set with Tobacco Budworm; 0% with Cotton Aphid; 100% with Aster Leafhopper. The inhibition at 400 ppm in the data set with Beet Armyworm amounted to 100%; in the data set with German Cockroach (168 h, 7 day) it was 0%; with German Cockroach (504 h, 21 day) it was 0%. Besides, the mortality at 5 ppm in the data set with Adult Stablefly (setting [1]) worked out at 20%; with Adult Stablefly (setting [2]), 90%. In the data set with Neonate Tobacco Budworm, this compound returned an LC50 of 40 µg/mL (≈ 55.7 µM).
